Read-outs that look alike come from different tables or passages of the source.
Legend:
Lewis lung carcinoma = format: in vivo, mouse; conditions: i.p. daily for 7-8 days, cyclophosphamide 20, Poly Arg-Apoptin 40, Apoptin-EC-SOD-PTD 10 mg/kgBW/day; for ratio of tumor inhibition: versus blank group mean tumor weight
Experimental: Four groups including a blank control, a positive control and a recombinant Apoptin-EC-SOD-PTD test group and a recombinant Poly Arg-Apoptin group were set for the experiment, and 8 animals were tested for each group. After inoculation of Lewis lung carcinoma cells, the blank control group was injected with saline water. Whereas, the positive control group was injected with cyclophosphamide solution (20 mg/kgBW/day). The two test groups were injected with the recombinant Apoptin-EC-SOD-PTD (10 mg/kgBW/day) which was purified, dialysed and sterile filtrated and recombinant Poly Arg-Apoptin (40 mg/kgBW/day), respectively.
1. Inoculation of carcinoma cell line: Six weeks old C57BU6 male mice with a weight of about 20 g were inoculated by armpit with 0.2 ml of Lewis lung carcinoma single cell suspension. After feeding for 3-4 days, tumor growth in the armpits of the mice was observed. Drug administration test would be initiated when the tumor grew to a size of several millimeters.
2. Administration: Drugs were administered by intraperitoneal injection, and the administrations were continued for 7-8 days. The mouse was weighed before daily administration.
3. Detecting ratio of tumor inhibition: After the drug administrations were stop for 2 days, the mice were sacrificed by breaking their necks. The tumor tissue was stripped from the body, weighted and calculated the ratio of tumor inhibition.
Ratio of tumor inhibition=(mean tumor weight of the blank group—mean tumor weight of the test group)/mean tumor weight of the blank group×100%.

HeLa cells = assay: MTT survival of HeLa cells cultured in vitro, 24 h; format: cell-based; conditions: 100 μg/ml
Experimental: 1. The HeLa cells were cultured on the 96-well cell culture plate at 37° C. until the cell density reached to about 60%. Imidazole was removed from the recombinant Apoptin-EC-SOD-PTD sample isolated and purified after expressing by repeated dialysis. After sterile filtration, the protein was diluted by adding different volume of DMEM cell culture media. From the highest concentration of protein, the concentration was reduced by half dilution gradually until zero. And the solution without protein was used as the negative control; for each protein concentration group were selected 3-4 wells for parallel control. Meanwhile, the recombinant Apoptin protein isolated and purified from the prokaryotic expression system using the similar method was used as the control and conducted the same experimental operation. The two sets of samples were cultured for 24 h, drew culture media out and added the DMEM (100 μl) containing the 5 μg/ml of MTT, and then incubated for 4 hours at 37° C., drew the culture media out and added DMSO (100 μl) to dissolve the purple crystals, incubated for 10 min at 37° C. and measured its absorbance at 490 nm by a microplate reader. […]
2. Survival ratios of HeLa cells treated with different sample concentration were detected by MTT method.

O=P1(N(CCCl)CCCl)NCCCO1 (stereo not shown) [cyclophosphamide]
weight of the tumor tissue X ± SD (Lewis lung carcinoma; tumor stripped 2 days after last dose): 1.21 ± 0.119 | ratio of tumor inhibition (Lewis lung carcinoma): 47.4% | ratio of tumor inhibition (Lewis lung carcinoma; listed as positive control): 47.4%

B1: recombinant Apoptin: recombinant Apoptin protein isolated and purified from the prokaryotic expression system, used as the control (protein)
chain: MNALQEDTPPGPSTVFRPPTSSRPLETPHCREIRIGIAGITITLSLCGCANARAPTLRSATADNSESTGFKNVPDLRTDQPKPPSKKRSCDPSEYRVSELKESLITTTPSRPRTAKRRIRL
modifications: Chicken anemia virus
notes: recombinant Apoptin protein isolated and purified from the prokaryotic expression system, used as the control
effect on the cell growth of HeLa (HeLa cells): not obvious
